Drawing on paper PMC9386376, “Discovery of spirooxindole-derived small-molecule compounds as novel HDAC/MDM2 dual inhibitors and investigation of their anticancer activity” (Frontiers in Oncology, 2022), this text covers IC50 and apoptotic cells for two compounds.

As usually defined, the IC50 is the midpoint of a concentration-inhibition curve.

In one experiment the test system is HCT116 cells. The experiment is described as follows: MTT antiproliferative assay, HCT116. The following applies: Homo sapiens, HCT-116, read-out: IC50 HCT116.
In experiment [1] the test system is MCF-7 cells. The experiment is described as follows: MTT antiproliferative assay, MCF-7. The settings on record: Homo sapiens, MCF7, read-out: IC50 MCF-7. On the technique in general: Tetrazolium assays rely on reduction of a dye to a coloured formazan, in cell work by metabolically active cells.
Description: (§1) The cytotoxicity assay was performed with MTT method as previously described ([73], [88], [89]).
For a further experiment, the system named is A431 cells. Kind of experiment: MTT antiproliferative assay, A431. The settings on record: Homo sapiens, A-431, read-out: IC50 A431.
The subject of experiment [2] is MCF-7 cells. The experiment is described as follows: Annexin V-FITC/PI double staining, flow cytometry. It is filed as cell-based, human. The settings on record: MCF-7, 5.0 μM, 24 h. As to the method: It was reported that the inactivation of HDAC and/or MDM2 could increase the percentage of apoptosis cells ([85]–[87]). Therefore, three methods were applied to assess the effect of MDM2-HDAC dual inhibitor 11b on the apoptosis of MCF-7 cells. […] Subsequently, the annexin V-FITC/propidium iodide (PI) double staining method was carried out to quantitatively detect the effect of compound 11b on cell apoptosis (Figure 9B).
Cells were collected after incubation, then fixed with 75% ice-cold ethanol and stored at -20°C for 1 h. The cells were then harvested with 0.25% trypsin (without EDTA) and centrifuged at 2000 rpm for 5min. Then, the harvested cells were washed with ice-cold PBS twice and resuspended in 500 μL of 1× binding buffer, which was then added to 5 μL of annexin V-FITC and incubated at room temperature in the dark for 15 min. After adding 10 μL of propidium iodide (PI), the cells were incubated at room temperature in the dark. After another 15 min incubation, the cells were collected and analyzed by flow cytometry.

Description for A431 cells: as §1
Description for HCT116 cells: as §1

Turning to `COc1ccc(C2=N[C@@H](c3ccc(Cl)cc3)[C@@H](c3ccc(Cl)cc3)N2C(=O)N2CCNC(=O)C2)c(OC(C)C)c1` [Nutlin-3, reference compound], the values for the IC50 in the experiment on HCT116 cells, in the experiment with MCF-7 cells [1] and with A431 cells were 11 ± 2.42 µM, 9.75 ± 2.97 µM and 9.72 ± 1.66 µM, respectively. Moreover, in the experiment on MCF-7 cells [2], the apoptotic cells is 28.23%.

In turn, `O=C(CCCCCCC(=O)Nc1ccccc1)NO` [SAHA, vorinostat] showed an apoptotic cells in the experiment on MCF-7 cells [2] of 7.56%.
